Experimental data as given in patent US7186830B2, “Tricyclic 2-pyrimidone compounds useful as HIV reverse transcriptase inhibitors” (Bristol-Myers Squibb Company, priority 2002, dated 2007).

| SMILES | melting point |
| --- | --- |
| Cc1nc2c(c(=O)[nH]1)Nc1ccc(C#N)cc1C2(COC(C)C)C(F)(F)F (centres unmarked) [Example 7, 8-Cyano-10-(isopropoxymethyl)-2-methyl-10-(trifluoromethyl)-5,10-dihydropyrimido[5,4-b]quinolin-4(3H)-one] | 277.3 to 278.1 °C (dec.) |
| N#Cc1ccc2c(c1)C(CCC1CC1)(C(F)(F)F)c1nc[nH]c(=O)c1N2 (centres unmarked) [Example 9, 8-Cyano-10-(2-cyclopropylethyl)-10-(trifluoromethyl)-5,10-dihydropyrimido[5,4-b]quinolin-4(3H)-one] | > 280 °C |
